Consider six compounds from patent US8889906B2, “Tetralin and indane derivatives and uses thereof” (Roche Palo Alto LLC, priority 2004, dated 2014).

Each structure is given as a SMILES string. Structures can show the parent of a compound that is named as a salt.

In data set [1] the target is T1, recombinant human 5-HT6 receptor (Homo sapiens, UniProt P50406).
T1 construct: expressed in transfected cells
The data set is described as follows: 5-HT6 radioligand binding ([3H]LSD competition). The note with it: [3H]LSD displacement, membranes of HEK293 cells expressing recombinant human 5-HT6 receptor, 37° C.; read-out: pKi for 5-HT6 (converted). How it is done:
(§1) The binding activity of compounds of this invention in vitro was determined as follows. Duplicate determinations of 5-HT6 ligand affinity were made by competing for binding of [^3H]LSD in cell membranes derived from HEK293 cells stably expressing recombinant human 5-HT6 receptor. Duplicate determinations of 5-HT2A ligand affinity were made by competing for binding of [^3H]Ketanserin (3-(2-(4-(4-fluorobenzoyl)piperidinol)ethyl)-2,4(1H,3H)-quinazolinedione) in cell membranes derived from CHO-K1 cells stably expressing recombinant human 5-HT2A receptor. Membranes were prepared from HEK 293 cell lines by the method described by Monsma et al., Molecular Pharmacology, Vol. 43 pp. 320-327 (1993), and from CHO-K1 cell lines as described by Bonhaus et al., Br J Pharmacol. June; 115(4):622-8 (1995).
(§2) For estimation of affinity at the 5-HT6 receptor, all determinations were made in assay buffer containing 50 mM Tris-HCl, 10 mM MgSO4, 0.5 mM EDTA, 1 mM ascorbic acid, pH 7.4 at 37° C., in a 250 microliter reaction volume. […]
(§3) Assay tubes containing [^3H] […] Ketanserin were determined as radioactive counts per minute using Packard TopCount.
(§4) Displacement of [^3H]LSD or [^3H]Ketanserin from the binding sites was quantified by fitting concentration-binding data to a 4-parameter logistic equation: […]

Data set [2] addresses T2, recombinant human 5-HT2A receptor (Homo sapiens, UniProt P28223).
T2 construct: expressed in transfected cells
Kind of data set: 5-HT2A radioligand binding ([3H]Ketanserin competition). The note with it: [3H]Ketanserin displacement, membranes of CHO-K1 cells expressing recombinant human 5-HT2A receptor, 32° C.; read-out: pKi for 5-HT2A (converted). How it is done: as §1, §2, §3, §4

T2 sequence (P28223 whole entry): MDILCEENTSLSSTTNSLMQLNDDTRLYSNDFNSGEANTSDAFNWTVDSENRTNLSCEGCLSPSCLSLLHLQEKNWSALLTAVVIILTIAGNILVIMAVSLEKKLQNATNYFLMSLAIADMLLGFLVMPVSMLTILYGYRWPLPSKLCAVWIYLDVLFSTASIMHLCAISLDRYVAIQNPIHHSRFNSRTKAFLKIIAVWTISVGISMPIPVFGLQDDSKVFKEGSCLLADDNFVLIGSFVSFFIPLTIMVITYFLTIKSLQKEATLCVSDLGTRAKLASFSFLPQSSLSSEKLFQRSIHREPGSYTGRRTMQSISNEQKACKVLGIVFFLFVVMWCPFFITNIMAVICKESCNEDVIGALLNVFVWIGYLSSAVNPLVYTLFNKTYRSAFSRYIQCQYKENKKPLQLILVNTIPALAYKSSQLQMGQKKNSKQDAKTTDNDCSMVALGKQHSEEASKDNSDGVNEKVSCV
T1 sequence (P50406 whole entry): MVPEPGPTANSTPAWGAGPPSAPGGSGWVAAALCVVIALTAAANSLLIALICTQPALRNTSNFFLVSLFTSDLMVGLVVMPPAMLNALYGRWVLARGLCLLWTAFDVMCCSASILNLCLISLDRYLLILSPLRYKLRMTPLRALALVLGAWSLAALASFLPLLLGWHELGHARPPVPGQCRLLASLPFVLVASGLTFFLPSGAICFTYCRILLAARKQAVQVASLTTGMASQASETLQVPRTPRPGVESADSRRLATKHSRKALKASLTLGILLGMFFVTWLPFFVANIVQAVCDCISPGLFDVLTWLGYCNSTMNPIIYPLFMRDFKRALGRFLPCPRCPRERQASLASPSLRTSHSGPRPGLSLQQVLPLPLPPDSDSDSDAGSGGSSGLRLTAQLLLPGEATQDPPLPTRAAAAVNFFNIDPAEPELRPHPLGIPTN

Consider `CNC[C@@H]1CCCc2cc(S(=O)(=O)c3cccc(OC)c3)ccc21` (as salt: HCl) [Compound 50, (R)-[6-(3-Methoxy-benzenesulfonyl)-1,2,3,4-tetrahydro-naphthalen-1-ylmethyl]-methyl-amine], for which the melting point – broadly, the temperature, or range, at which the solid turns liquid – lay in the range of 265 to 266 °C. The compound `CNC[C@H]1CCCc2cc(S(=O)(=O)c3ccccc3)ccc21` (as salt: TFA) [Compound 40, (S)-(6-Benzenesulfonyl-1,2,3,4-tetrahydro-naphthalen-1-ylmethyl)-methyl-amine] yielded a melting point of 146 to 147 °C.

Turning to `N#Cc1cccc(S(=O)(=O)c2ccc3c(c2)CCC[C@H]3CN)c1` (as salt: oxalate) [Compound 52, (R)-3-(5-Aminomethyl-5,6,7,8-tetrahydro-naphthalene-2-sulfonyl)-benzonitrile], the melting point fell in the range of 212 to 213 °C. On to `N=C(N)CCC1CCCc2cc(S(=O)(=O)c3ccccc3)ccc21` (stereo not drawn) [3-(6-Benzenesulfonyl-1,2,3,4-tetrahydro-naphthalen-1-yl)-propionamidine], for which the Ki in data set [1] is approximately 141 pM.

`CC1(C)CN=C(NCC2CCCc3ccc(S(=O)(=O)c4ccccc4)cc32)NC1` (stereo not drawn) [Compound 11, (7-Benzenesulfonyl-1,2,3,4-tetrahydro-naphthalen-1-ylmethyl)-(5,5-dimethyl-1,4,5,6-tetrahydro-pyrimidin-2-yl)-amine] registered a melting point of 140 to 145 °C. In the case of `CC(=N)NCC1CCCc2cc(S(=O)(=O)c3ccccc3)ccc21` (stereo not drawn) [N-(6-Benzenesulfonyl-1,2,3,4-tetrahydro-naphthalen-1-ylmethyl)-acetamidine], the Ki in data set [2] was approximately 282 pM.
